SMILES strings stand for the structures.

For one series, the target named is T1, COX-2 (Mus musculus, UniProt Q05769).
T1 construct: endogenous in cells; host or cells: peritoneal macrophages of C57BL/6 mouse, aspirin-pretreated, LPS-induced
T1 sequence (Q05769 18-604): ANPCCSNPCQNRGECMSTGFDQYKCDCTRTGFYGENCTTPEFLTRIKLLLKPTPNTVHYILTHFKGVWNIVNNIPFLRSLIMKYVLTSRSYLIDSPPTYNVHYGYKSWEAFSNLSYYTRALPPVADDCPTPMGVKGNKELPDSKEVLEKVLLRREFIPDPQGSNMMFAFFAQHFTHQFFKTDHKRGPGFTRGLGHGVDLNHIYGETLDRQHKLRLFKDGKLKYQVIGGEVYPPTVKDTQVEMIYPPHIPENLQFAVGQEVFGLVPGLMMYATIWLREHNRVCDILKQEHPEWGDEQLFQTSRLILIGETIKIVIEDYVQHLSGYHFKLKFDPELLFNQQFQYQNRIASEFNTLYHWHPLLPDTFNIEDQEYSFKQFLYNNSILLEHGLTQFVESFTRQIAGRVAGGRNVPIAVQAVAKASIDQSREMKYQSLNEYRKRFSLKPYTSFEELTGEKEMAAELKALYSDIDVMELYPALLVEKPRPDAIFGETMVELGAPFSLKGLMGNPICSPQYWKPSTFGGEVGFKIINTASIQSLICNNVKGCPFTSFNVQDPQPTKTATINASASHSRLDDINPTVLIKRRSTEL
The experiment in a line: Evaluation of COX-2's inhibition efficacy (PGE2 radioimmuno assay, LPS-induced, aspirin-pretreated peritoneal macrophages). The series is classed as cell-based, C57BL/6 mouse. The conditions noted are these: for inhibition at 1 µg/mL: 1 μg/ml; for inhibition at 10 µg/mL: 10 μg/ml; for inhibition at 0.1 µg/mL: 0.1 μg/ml. The method, then: Regarding the compounds in the above Examples and indomethacin, the inhibition efficacy of COX-2 and COX-1 are being measured by the following two methods. […] Evaluation of COX-2's Inhibition Efficacy (J. Pharmacol. Exp. […] After cleaning C57BL/6 mouse's abdomen by 70% EtOH, the skin of mouse's abdomen was eliminated cautiously not to harm peritomeum and 5 ml of cold PBS was poured into the abdominal cavity and in certain times later macrophage-bleeding abdominal-liquid was collected by syringe. […] After putting 1 ml cell suspension having cell number of 1×10^6 cells/mu into each 24-well microtiter plates, macrophages were adhered to the bottom of plate by culturing in the condition of 5% CO2/95% O2, at a temperature of 37° C. for 2 hours. Other cells not being adhered to were eliminated by washing two times with PBS. The purity of macrophages obtained through this process was identified by differential counting. […] After inducing COX-2 by LPS, the cell culture medium was eliminated and macrophages was washed two times with PBS. And 1 ml of RRPI-1640 badge was added to each well again and after treating them with sample with appropriate concentration, they were cultured at a temperature of 37i É for 10 minutes. And then treated them with arachidonic acid to make their final concentration as 10 μM and cultured them additional 10 minutes, all the supernatant liquid of reaction was obtained. The amount of PGE2 produced in the supernatant liquid of reaction was determined by the PGE2 radioimmuno assay.

The target in a further series is T2, COX-1 (Mus musculus, UniProt P22437).
T2 construct: there is no pre-treatment of aspirin and LPS in the adhesion of macrophage; endogenous in cells; host or cells: peritoneal macrophages of C57BL/6 mouse, without aspirin and LPS pre-treatment
T2 sequence (P22437 27-602): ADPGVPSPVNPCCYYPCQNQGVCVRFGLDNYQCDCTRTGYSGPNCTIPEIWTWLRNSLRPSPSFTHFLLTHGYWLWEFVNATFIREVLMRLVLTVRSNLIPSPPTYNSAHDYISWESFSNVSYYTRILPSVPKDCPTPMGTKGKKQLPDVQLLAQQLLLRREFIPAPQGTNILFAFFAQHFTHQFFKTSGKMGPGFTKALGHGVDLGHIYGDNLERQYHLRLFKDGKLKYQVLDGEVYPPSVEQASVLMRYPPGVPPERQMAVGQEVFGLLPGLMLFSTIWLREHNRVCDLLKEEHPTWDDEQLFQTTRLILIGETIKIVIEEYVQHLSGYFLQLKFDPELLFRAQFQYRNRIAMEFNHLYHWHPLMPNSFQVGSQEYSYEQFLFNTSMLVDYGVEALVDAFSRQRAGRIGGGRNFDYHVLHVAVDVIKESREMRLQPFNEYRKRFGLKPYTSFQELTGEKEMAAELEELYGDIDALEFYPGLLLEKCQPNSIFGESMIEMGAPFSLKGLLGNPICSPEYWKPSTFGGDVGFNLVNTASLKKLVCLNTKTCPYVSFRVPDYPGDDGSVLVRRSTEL
Nature of the series: Evaluation of COX-1's inhibition efficacy (macrophages without aspirin and LPS pre-treatment). The series is classed as cell-based, C57BL/6 mouse. To be noted: for inhibition at 10 µg/mL: 10 μg/ml; for inhibition at 1 µg/mL: 1 μg/ml. Here is the method: Regarding the compounds in the above Examples and indomethacin, the inhibition efficacy of COX-2 and COX-1 are being measured by the following two methods.
After cleaning C57BL/6 mouse's abdomen by 70% EtOH, the skin of mouse's abdomen was eliminated cautiously not to harm peritomeum and 5 ml of cold PBS was poured into the abdominal cavity and in certain times later macrophage-bleeding abdominal-liquid was collected by syringe. By adding RPMI-1640 badge containing penicillin(100 unit/mt) and streptomycin([…]) to cell pellet obtained by centrifugation of collected liquid about 5 minutes in 1500 rpm, it was disperesed and also COX-1 existing in the cell was inactivated by treating with 500 μM aspirin. After putting 1 ml cell suspension having cell number of 1×10^6 cells/mu into each 24-well microtiter plates, macrophages were adhered to the bottom of plate by culturing in the condition of 5% CO2/95% O2, at a temperature of 37° C. for 2 hours. Other cells not being adhered to were eliminated by washing two times with PBS. The purity of macrophages obtained through this process was identified by differential counting. After adding RPMI-1640 badge(normally 5×10^5 cell/ml) containing 3% right fetal blood serum to macrophage and treating it with LPS(lipopolysaccharide) to make final concentration as 10 μg/ml, it was cultured in the condition of 5% CO2, at a temperature of 37° C. for 16 hours. After inducing COX-2 by LPS, the cell culture medium was eliminated and macrophages was washed two times with PBS. And 1 ml of RRPI-1640 badge was added to each well again and after treating them with sample with appropriate concentration, they were cultured at a temperature of 37i É for 10 minutes. And then treated them with arachidonic acid to make their final concentration as 10 μM and cultured them additional 10 minutes, all the supernatant liquid of reaction was obtained. The amount of PGE2 produced in the supernatant liquid of reaction was determined by the PGE2 radioimmuno assay. The 100% COX-2's activation is referenced by the difference of the amount of PGE2 produced in the supernatant liquid of reaction between with 10 μM arachidonic acid treatment and without 10 μM arachidonic acid treatment.
2. Evaluation of COX-1's Inhibition Efficacy
Following the same procedure as the above evaluation of COX-2's inhibition efficacy, but there is no pre-treatment of aspirin and LPS in the adhesion of macrophage.

`CS(=O)(=O)c1ccc(-c2oc3ccccc3c(=O)c2-c2cncc(Br)c2)cc1` [Example 19, 3-(5-Bromo-3-pyridinyl)-2-(4-(methylsulfonyl)phenyl)-4H-1-benzopyran-4-one] yielded a melting point of 197 to 199 °C. In addition, on COX-2, the inhibition at 1 µg/mL stood at 18% and the inhibition at 10 µg/mL is 35%. Besides, the inhibition at 10 µg/mL on COX-1 worked out at 11%.
Turning to `NS(=O)(=O)c1ccc(-c2oc3ccc(F)cc3c(=O)c2-c2cccc(F)c2)cc1` [Example 51, 2-(4-(Aminosulfonyl)phenyl)-6-fluoro-3-(3-fluorophenyl)-4H-1-benzopyran-4-one], the melting point was 257 to 258 °C. Also, on COX-2, the inhibition at 0.1 µg/mL is 56%, the inhibition at 1 µg/mL came to 83% and the inhibition at 10 µg/mL came to 100%. The inhibition at 10 µg/mL on COX-1 is 6%.
In the case of `NS(=O)(=O)c1ccc(-c2oc3ccccc3c(=O)c2-c2ccccc2F)cc1` [Example 58, 2-(4-(Aminosulfonyl)phenyl)-3-(2-fluorophenyl)-4H-1-benzopyran-4-one], the melting point lay in the range of 215 to 217 °C. Also, on COX-2, the inhibition at 1 µg/mL was 63% and the inhibition at 10 µg/mL was found to be 96%. At COX-1, the inhibition at 1 µg/mL came out at 34% and the inhibition at 10 µg/mL was 60%.
In turn, `NS(=O)(=O)c1ccc(-c2oc3ccccc3c(=O)c2-c2ccc(Cl)c(Cl)c2)cc1` [Example 57, 2-(4-(Aminosulfonyl)phenyl)-3-(3,4-dichlorophenyl)-4H-1-benzopyran-4-one] showed a melting point of 215 to 217 °C. Also, on COX-2, the inhibition at 0.1 µg/mL stood at 48% and the inhibition at 1 µg/mL is 96%. The inhibition at 10 µg/mL on COX-1 worked out at 75%.
The molecule `COc1ccc(-c2c(-c3ccc(S(N)(=O)=O)cc3)oc3ccccc3c2=O)cc1` [Example 55, 2-(4-(Aminosulfonyl)phenyl)-3-(4-methoxyphenyl)-4H-1-benzopyran-4-one] had a melting point of 252 to 254 °C. In addition, on COX-2, the inhibition at 1 µg/mL stood at 90% and the inhibition at 10 µg/mL is 100%. On COX-1, the inhibition at 1 µg/mL was determined as 66% and the inhibition at 10 µg/mL was 84%.
`CS(=O)(=O)c1ccc(-c2oc3ccccc3c(=O)c2-c2ccncc2)cc1` [Example 16, 2-(4-(Methylsulfonyl)phenyl)-3-(4-pyridinyl)-4H-1-benzopyran-4-one] had a melting point of 204 to 205 °C. In addition, the inhibition at 10 µg/mL at COX-2 came to 24%. Moreover, on COX-1, the inhibition at 10 µg/mL is less than 5%.
Turning to `CS(=O)(=O)c1ccc(-c2oc3ccccc3c(=O)c2-c2ccc(C=O)cc2)cc1` [Example 9, 3-(4-Formylphenyl)-2-(4-(methylsulfonyl)phenyl)-4H-1-benzopyran-4-one], the melting point was 189 to 190 °C. Besides, at COX-2, the inhibition at 1 µg/mL was less than 5% and the inhibition at 10 µg/mL was found to be 29%. At COX-1, the inhibition at 10 µg/mL is less than 5%.
In turn, `NS(=O)(=O)c1ccc(-c2oc3ccccc3c(=O)c2-c2ccccc2)cc1` [Example 53, 2-(4-(Aminosulfonyl)phenyl)-3-phenyl-4H-1-benzopyran-4-one] registered a melting point of 218 to 220 °C. Further, on COX-2, the inhibition at 0.1 µg/mL came out at 76%, the inhibition at 1 µg/mL was found to be 90% and the inhibition at 10 µg/mL was found to be 92%. Also, at COX-1, the inhibition at 1 µg/mL was found to be 52% and the inhibition at 10 µg/mL is 61%.
Turning to `Cc1ccc(-c2c(-c3ccc(S(C)(=O)=O)cc3)oc3ccccc3c2=O)cn1` [Example 20, 3-(2-Methyl-5-pyridinyl)-2-(4-(methylsulfonyl)phenyl)-4H-1-benzopyran-4-one], the melting point was in the range of 195 to 196 °C. In addition, at COX-2, the inhibition at 1 µg/mL was less than 5% and the inhibition at 10 µg/mL stood at 85%. Further, the inhibition at 10 µg/mL at COX-1 was less than 5%.

For the origin of these results see patent US6340694B1, “Diarylbenzopyran derivatives as cyclooxygenase-2 inhibitors” (Pacific Corporation, priority 1998, dated 2002).
